In one assay the test system is isolated, perfused heart. Description: Isolated perfused rat heart: cardioplegic arrest, cold ischemia and re-perfusion, hemodynamic and metabolic evaluation (P-31 MRS, biochemistry). As to conditions: L-arginine added versus without. Here is the method:
The hearts are removed from male Sprague Dawley rats of 350 to 375 g and anaesthetised by intraperitoneal injection of pentobarbital. The hearts are then perfused following the isovolumic contracting heart model. In this model, the heart is perfused with Krebs-Henseleit buffer at 37° C., without phosphate, in a retrograde manner via the aorta, at a constant pressure of 100 mmHg An incompressible balloon, placed in the left ventricle makes the contraction isovolumic. This model makes it possible to evaluate the cardiac function, by the developed pressure and to measure the compliance by measurement of the diastolic pressure. […]
The signals observed in the RMN spectrum of the P-31 are those of inorganic phosphate, phosphocreatine and the 3 phosphorous molecules of ATP. […] The areas and the positions of resonance are determined by using the NMR1 program (New Methods Research Syracuse, N.Y.) on an IBM Risc System 6000 operating system.
The areas measured are corrected by taking into consideration the saturation factors determined by comparing the acquired spectrums to completely relaxed spectrums. The areas of different metabolites can thus be converted into concentrations by referring to the ATPβ area, taking into consideration a cytosolic concentration of 11.6 mM for the ATP (determined by high pressure liquid chromatography). […]

The next assay concerns transplanted heart. In words: Heterotopic transplant of rat heart, 3 hours of ischemia, function and energy metabolism after 1 hour and 24 hours of re-perfusion. As to conditions: with versus without arginine, after 1 hour and after 24 hours of re-perfusion; first results. The assay is classed as in vivo. The procedure:
FIG. 20 represents, within the framework of a protocol corresponding to 3 hours of ischemia with arrest and preservation in CRMBM solution, the ratios of different energy metabolites after 1 hour of re-perfusion (represented by the white histogram marked with black lines) and 24 hours of re-perfusion (represented by the histogram with white and black hatching).
The cardiac function, as represented by the derivative of developed pressure (dP/dtmax), is indicated by the black histogram without arginine, and by the histogram with white and black hatching with arginine.
A heterotopic transplant of rat heart model has been developed, working where the function and the metabolism can be simultaneously analysed. In this model the functional and metabolic recovery has thus been studied after 1 hour and 24 hours of re-perfusion after ischemia of 3 hours, protected by the invention solution.
The study has made it possible to analyse the long term recovery of the heart, comparing 1 hour and 24 hours of re-perfusion.

“Also recorded” adds a separate entry of the source.

Turning to `N=C(N)NCCC[C@H](N)C(=O)O` [L-arginine], the “content in adenylic nucleotides” value in the assay with isolated, perfused heart (8 hours of ischemia and re-perfusion, HPLC) is “without however affecting”. For the same molecule, the “pool of amino acids during re-perfusion” value in the assay with isolated, perfused heart (protocol 3: 8 hours of ischemia, HPLC in frozen hearts) is reported as “greater pool of amino acids; also recorded: limits the depletion”. The “functional recovery of the heart, effect of L-arginine” value in the assay with transplanted heart was “beneficial effect”.

(Values after US6524785B1, “Perfusion and/or preservation and/or re-perfusion solution during organ transplant” (Centre National de la Recherche Scientifique, priority 1998, dated 2003).)
